SMILES strings stand for the structures.

This assay addresses T1, CRTH2 (DP2) (Homo sapiens, UniProt Q9Y5Y4).
T1 construct: host or cells: CHO cells
T1 sequence (Q9Y5Y4 1-395): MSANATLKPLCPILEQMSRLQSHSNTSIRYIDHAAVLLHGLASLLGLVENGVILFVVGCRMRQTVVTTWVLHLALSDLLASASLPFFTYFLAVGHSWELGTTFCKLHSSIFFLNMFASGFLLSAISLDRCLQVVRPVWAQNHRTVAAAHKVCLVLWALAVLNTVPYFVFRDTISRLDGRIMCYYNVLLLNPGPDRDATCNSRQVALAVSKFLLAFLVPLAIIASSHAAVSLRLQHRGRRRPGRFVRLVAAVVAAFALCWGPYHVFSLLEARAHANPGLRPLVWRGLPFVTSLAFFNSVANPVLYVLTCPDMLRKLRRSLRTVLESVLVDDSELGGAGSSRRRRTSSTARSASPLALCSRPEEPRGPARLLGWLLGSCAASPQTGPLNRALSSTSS
The experiment in a line: Radioligand binding Scintillation Proximity Assay ([3H]PGD2, hCRTH2-CHO cell membranes). Particulars: 1.5 nM [3H]PGD2, hCRTH2-CHO cell membranes, SPA. Here is the method: Adherent CHO cells expressing hCRTH2 (Euroscreen, Belgium) were cultured in 225 cm^2 cell culture flasks (Corning, USA) in 30 ml of medium. After two rinses of phosphate buffered saline (PBS), cells were harvested in 10 ml of PBS containing 1 mM EDTA, centrifuged at 500×g for 5 min at 4° C. and frozen at −80° C. The pellet was re-suspended in 50 mM Tris-HCl, pH 7.4, 2 mM EDTA, 250 mM Sucrose, containing protease inhibitor cocktail tablets, (Complete EDTA-free, Roche, Germany) and incubated 30 min at 4° C. Cells were disrupted by nitrogen cavitation (Parr Instruments, USA) at 4° C. (800 p.s.i. for 30 min), and centrifuged at 500×g for 10 min at 4° C. Pellet containing nuclei and cellular debris was discarded and supernatant was centrifuged 60 min at 4° C. at 45000×g. Membrane pellet was re-suspended in storage buffer (10 mM HEPES/KOH pH 7.4, 1 mM EDTA, 250 mM sucrose, protease inhibitor cocktail tablets) using Dounce homogenization and frozen in liquid nitrogen, and stored at 80° C.
Non-specific binding was determined in the presence of 10 μM PGD2 (Cayman, USA). Competing Compounds of Formula (I) were diluted in dimethylsulphoxide so that the total volume of dimethylsulfoxide was kept constant at 1% dimethylsulphoxide (Me2SO). Serial dilutions of […] were prepared and 10 μl each of the compounds of Formula (I) stock solutions were added to the binding assay reagents and incubated for 90 min with agitation at room temperature.
Background: In a scintillation proximity assay essentially only radioactivity close to the scintillant gives light.
One may read the IC50 as the concentration that gives 50% inhibition. Higher therefore signals weaker potency in that assay. Consider `CCC(=O)N(Cc1cccc(C(F)(F)F)c1)c1cccc(-c2nnn[nH]2)c1` [Example 28, N-[3-(1H-tetrazol-5-yl)phenyl]-N-[3-(trifluoromethyl)benzyl]propanamide], for which the IC50 was found to be 268 nM. As to `CCC(=O)N(Cc1ccc(C(F)(F)F)cc1)c1cccc(-c2nnn[nH]2)c1` [Example 27, N-[3-(1H-tetrazol-5-yl)phenyl]-N-[4-(trifluoromethyl)benzyl]propanamide], the IC50 was 129 nM. As to `CCC(=O)N(Cc1cccc(OC(C)C)c1)c1cc(F)cc(-c2nnn[nH]2)c1` [Example 75, N-[3-fluoro-5-(1H-tetrazol-5-yl)phenyl]-N-(3-isopropoxybenzyl)propanamide], the IC50 came to 7.1 nM. Regarding `CCC(=O)N(Cc1ccc(S(C)(=O)=O)cc1)c1cccc(-c2nnn[nH]2)c1` [Example 65, N-[4-(methylsulfonyl)benzyl]-N-[3-(1H-tetrazol-5-yl)phenyl]propanamide], the IC50 was 75 nM. `CCC(=O)N(Cc1ccc(OC(F)(F)F)c(Cl)c1)c1cccc(-c2nnn[nH]2)c1` [Example 45, N-[3-chloro-4-(trifluoromethoxy)benzyl]-N-[3-(1H-tetrazol-5-yl)phenyl]propanamide]: the half-maximal inhibitory concentration (IC50) is 83 nM. The compound `CCNS(=O)(=O)c1cccc(-c2ccc(CN(C(=O)CC)c3cc(F)cc(-c4nnn[nH]4)c3)cc2)c1` [Example 86, N-({3′-[(ethylamino)sulfonyl]biphenyl-4-yl}methyl)-N-[3-fluoro-5-(1H-tetrazol-5-yl)phenyl]propanamide] returned an IC50 of 170 nM.

Consider `CCCCC(=O)N(Cc1ccc(C(F)(F)F)cc1)c1cc(F)cc(-c2nnn[nH]2)c1` [Example 60, N-[3-fluoro-5-(1H-tetrazol-5-yl)phenyl]-N-[4-(trifluoromethyl)benzyl]pentanamide], for which the IC50 is 2.6 nM.

`CCCCC(=O)N(Cc1cccc(O)c1)c1cccc(-c2nnn[nH]2)c1` [Example 79, N-(3-hydroxybenzyl)-N-[3-(1H-tetrazol-5-yl)phenyl]pentanamide] showed an IC50 of 140 nM. As to `CCC(=O)N(Cc1ccc(-c2ccccc2)cc1)c1cccc(-c2nnn[nH]2)c1` [Example 69, N-(biphenyl-4-ylmethyl)-N-[3-(1H-tetrazol-5-yl)phenyl]propanamide], the half-maximal inhibitory concentration (IC50) came to 506 nM.

Regarding `CCC(=O)N(Cc1cccc(-c2cccnc2)c1)c1cccc(-c2nnn[nH]2)c1` [Example 64, N-(3-pyridin-3-ylbenzyl)-N-[3-(1H-tetrazol-5-yl)phenyl]propanamide], the IC50 is 403 nM.

Compound `CCC(=O)N(Cc1cccc([S+]([O-])C(F)(F)F)c1)c1cc(F)cc(-c2nnn[nH]2)c1` (stereo not shown) [Example 112, N-[3-fluoro-5-(1H-tetrazol-5-yl)phenyl]-N-{3-[(trifluoromethyl)sulfinyl]benzyl}propanamide] registered an IC50 of 19 nM.

Take `CCC(=O)N(Cc1ccc(S(=O)(=O)C(F)(F)F)cc1)c1cc(F)cc(-c2nnn[nH]2)c1` [Example 95, N-[3-fluoro-5-(1H-tetrazol-5-yl)phenyl]-N-{4-[(trifluoromethyl)sulfonyl]benzyl}propanamide]: the 50% inhibitory concentration (IC50) came out at 5.6 nM. For the compound `CCC(=O)N(Cc1cccc(OC(F)(F)F)c1)c1cccc(-c2nnn[nH]2)c1` [Example 42, N-[3-(1H-tetrazol-5-yl)phenyl]-N-[3-(trifluoromethoxy)benzyl]propanamide], the IC50 came out at 245 nM. `CCCCC(=O)N(Cc1ccc2ccccc2c1)c1cc(-c2nnn[nH]2)ccc1F` [Example 6, N-[2-fluoro-5-(1H-tetrazol-5-yl)phenyl]-N-(2-naphthylmethyl)pentanamide] yielded an IC50 of 23 nM.

Take `CCCCC(=O)N(Cc1cc2ccccc2o1)c1cc(-c2nnn[nH]2)ccc1F` [Example 12, N-(1-benzofuran-2-ylmethyl)-N-[2-fluoro-5-(1H-tetrazol-5-yl)phenyl]pentanamide]: the IC50 stood at 8.6 nM. `CCC(=O)N(Cc1cccc(-c2cn[nH]c2)c1)c1cc(F)cc(-c2nnn[nH]2)c1` [Example 101, N-[3-fluoro-5-(1H-tetrazol-5-yl)phenyl]-N-[3-(1H-pyrazol-4-yl)benzyl]propanamide] registered an IC50 of 19 nM.

The record behind these values is patent publication US20120115869A1, “TETRAZOLE DERIVATIVES” (MERCK SERONO S.A., priority 2009, published 2012).
